Source: paper PMC12221116, “Novel Quinazolinones Active against Multidrug‐Resistant Mycobacterium Tuberculosis: Synthesis, Antimicrobial Evaluation, and in Silico Exploration of Penicillin‐Binding Protein 1A as a Potential Target” (Chemmedchem, 2025)
≈ marks a conversion by molar mass, not a printed value. Where “and” joins values, the source holds several entries; their conditions need not be identical. Equal entries are not always repeated. Where two headings read alike, the source gives them in different places.

Assays:
[1] = tested on: Mycobacterium tuberculosis; conditions: target CHEMBL360; ref ChEMBL; cited from earlier work
Protein RecA = tested on: Protein RecA; design: method as in ChEMBL; conditions: target CHEMBL1741171; ref ChEMBL; cited from earlier work
Replicative DNA helicase = target: Replicative DNA helicase; design: method as in ChEMBL; conditions: target CHEMBL1741192; ref ChEMBL; cited from earlier work
[2] = tested on: Staphylococcus aureus subsp. aureus ATCC 29213, CCM 4223; experiment: Antibacterial microdilution broth, quality standards; format: cell-based; conditions: 24 h
[3] = tested on: Staphylococcus aureus subsp. aureus, MRSA ATCC 43300, CCM 4750; experiment: as above; format: cell-based; conditions: 24 h
[4] = tested on: Staphylococcus epidermidis ATCC 12228, CCM 4418; experiment: as above; format: cell-based; conditions: 24 h
[5] = tested on: Enterococcus faecalis ATCC 29212, CCM 4224; experiment: as above; format: cell-based; conditions: 24 h
[6] = tested on: Escherichia coli ATCC 25922, CCM 3954; experiment: as above; format: cell-based; conditions: 24 h
[7] = tested on: Klebsiella pneumoniae ATCC 10031, CCM 4415; experiment: as above; format: cell-based; conditions: 24 h
[8] = tested on: Acinetobacter baumannii ATCC 19606, DSM 30007; experiment: as above; format: cell-based; conditions: 24 h
[9] = tested on: Pseudomonas aeruginosa ATCC 27853, CCM 3955; experiment: as above; format: cell-based; conditions: 24 h

SMILES: Cc1nc2ccc(-c3ccccc3)cc2c(=O)n1-c1ccccc1 [CHEMBL4442905]
- MIC Mycobacterium tuberculosis [1]: > 64 µg/mL

SMILES: O=c1c2ccccc2nc(/C=C/c2cccnc2)n1CCc1ccccc1 [CHEMBL1366795]
- EC50 (Protein RecA): 12 µM

SMILES: O=c1c2ccccc2nc(/C=C/c2cccnc2)n1Cc1ccccc1 [CHEMBL1567670]
- AC50 (Replicative DNA helicase): 13.6 µM and 9.29 µM
- EC50 (Protein RecA): 9.92 µM

SMILES: C#CCNc1ccc2c(=O)n(-c3ccccc3)c(C)nc2c1 [CHEMBL4444032]
- MIC Mycobacterium tuberculosis [1]: 4 µg/mL (≈ 13.8 µM)

SMILES: CNC(C)C1CCC(N)C(OC2C(N)CC(N)C(OC3OCC(C)(O)C(NC)C3O)C2O)O1 (stereo not drawn) [gentamicin]
- MIC ([2]; 95% growth inhibition, read-out: MIC spectrophotometric detection, S. aureus): 1 µg/mL (≈ 2.09 µM)
- MIC ([2]; naked eye, read-out: MIC visual detection, S. aureus): 1 µg/mL (≈ 2.09 µM)
- MIC ([3]; 95% growth inhibition, read-out: MIC spectrophotometric detection, MRSA): 16 to 32 µg/mL (≈ 33.5 to 67 µM)
- MIC ([3]; naked eye, read-out: MIC visual detection, MRSA): 16 to 32 µg/mL (≈ 33.5 to 67 µM)
- MIC ([4]; 95% growth inhibition, read-out: MIC spectrophotometric detection, S. epidermidis): > 8 µg/mL
- MIC ([4]; naked eye, read-out: MIC visual detection, S. epidermidis): > 8 µg/mL
- MIC ([5]; read-out: MIC spectrophotometric detection, E. faecalis): 16 µg/mL (≈ 33.5 µM)
- MIC ([5]; naked eye, read-out: MIC visual detection, E. faecalis): 8 µg/mL (≈ 16.8 µM)
- MIC ([6]; 95% growth inhibition, read-out: MIC spectrophotometric detection, E. coli): 1 to 2 µg/mL (≈ 2.09 to 4.19 µM)
- MIC ([6]; naked eye, read-out: MIC visual detection, E. coli): 1 to 2 µg/mL (≈ 2.09 to 4.19 µM)
- MIC ([7]; 95% growth inhibition, read-out: MIC spectrophotometric detection, K. pneumoniae): > 8 µg/mL
- MIC ([7]; naked eye, read-out: MIC visual detection, K. pneumoniae): > 8 µg/mL
- MIC ([8]; 95% growth inhibition, read-out: MIC spectrophotometric detection, A. baumannii): 2 µg/mL (≈ 4.19 µM)
- MIC ([8]; naked eye, read-out: MIC visual detection, A. baumannii): 2 µg/mL (≈ 4.19 µM)
- MIC ([9]; 95% growth inhibition, read-out: MIC spectrophotometric detection, P. aeruginosa): 0.5 µg/mL (≈ 1.05 µM)
- MIC ([9]; naked eye, read-out: MIC visual detection, P. aeruginosa): 0.5 µg/mL (≈ 1.05 µM)
